Patent US20040229950A1, “Method and composition with conjugated linoleic acid esters” (priority 2002, published 2004)
“And” between values parts separate entries of the source, which are not always exact repeats. Equal entries are not always repeated.

Legend:
Human platelets [1] = assay: TXB2 production by platelets pretreated 1 hour with fatty acid/HSA; format: cell-based
Method: (§1) The following example illustrates the effect of CLA incorporation into platelet lipids on stimulating the release of endogenous AA and increasing the formation of TXB2. Platelets were prelabeled with either HSA alone or with 25 μM 9Z, 11Z-CLA/HSA for 1 hour at 37° C. After washing, the platelets were incubated for 15 minutes at room temperature, followed by the removal of the supernatants. The supernatants were then assayed for free […] content and TXB2 production. […] When the results of these three experiments are averaged, platelets treated with 9Z, 11Z-CLA stimulated […] release 414±155% and enhanced TXB2 formation 180±30%.
To compare the stimulatory effect of 9Z, 11Z-CLA on platelet TXB2 formation with other fatty acids, platelets were pretreated for 1 hour with HSA (control), or HSA complexed with either 9Z, 11Z-CLA, 9E,11E-CLA, linoleic acid (LA) or stearic acid (SA). The comparative effects of 25 μM 9Z, 11Z-CLA-, 9E, 11E-CLA-, LA- or SA-treated platelets on platelet TXB2 production is shown is FIG. 1. The values are the mean ±SD.

IL-1β-treated HUVECs = assay: 6-ketoPGF1a production from CLA-prelabeled HUVECs; format: cell-based, human; settings: 25 μM; for HUVEC 6-ketoPGF1a formation fold-stimulation: overnight prelabeling, 15 minutes incubation, mean ± SD, 4 experiments; for range of fold increase in endogenous 6-ketoPGF1a formation: range over four separate experiments
Method: (§2) The following example illustrates the effect of CLA incorporation on 6-ketoPGF1a production from CLA-enriched HUVECs. Following the procedure described by Bordet (1990), IL-1β-treated HUVECs were first pre-enriched during an overnight incubation with human serum albumin (HSA) complexed with either 25 […] 9Z, 11Z-CLA/HSA, 25 μM 10E, 12Z-CLA/HSA or without added fatty acid (control). […] Insignificant differences in cell viabilities (as measured by LDH release) were observed between control cells and cells pretreated with HSA/CLA. After washing, the cells were incubated for 15 minutes, followed by removal of the supernatants, which were then assayed for 6-ketoPGF1a content by EIA. In four separate experiments, control HUVECs produced and released 42-1000 pg/ml of 6-ketoPGF1a.

Human platelets [2] = assay: TXB2 formation by platelets treated 2 hours with CLA isomer/HSA; format: cell-based; settings: 25 μM, 2 hours at 37° C.; for TXB2 formation Fold stimulation: mean ± SD, 4 experiments
Method: Human platelets were treated for 2 hours at 37° C. with either HSA complexed with 25 μM of the indicated CLA isomer or with HSA alone. After washing, the platelets were maintained at room temperature for 15 minutes. The supernatants were then removed, the lipid content extracted with chloroform/methanol and the residue, after TLC separation, assayed for TXB2 formation by EIA. The results shown in Table 2 were similar to those obtained with CLA-prelabeled HUVECs. […] Also shown in Table 2 is that the CLA content of the platelet lipids increased from 0.03% to 0.23% after platelet treatment with 9Z, 11Z-CLA/HSA and to 0.66% after 10E, 12Z-CLA/HSA.

Human platelets [3] = assay: Release of endogenous AA from platelets prelabeled with CLA/HSA; format: cell-based
Method: as §1

[4] = system: human umbilical vein endothelial cells (HUVECs); assay: Inhibition of HUVEC 6-ketoPGF1a (PGI2) production by CLA in free fatty acid form; format: cell-based; settings: CLA in the free fatty acid form
Method: As a consequence, the patent disclosed the use of CLAs to inhibit platelet thromboxane formation or platelet aggregation. […] All of these studies relate to the use of conjugated linoleic acids in the free fatty acid form.
as §2

[5] = 25 μM, 1 hour pretreatment, versus HSA control, Example 2
[6] = experiment 1, 25 μM, 1 hour at 37° C.

Compound | stimulation of platelet TXB2 production (FIG. 1) (Human platelets [1]; [5]) | HUVEC 6-ketoPGF1a formation fold-stimulation (IL-1β-treated HUVECs) [fold] | range of fold increase in endogenous 6-ketoPGF1a formation (IL-1β-treated HUVECs) | TXB2 formation Fold stimulation (Human platelets [2]) | inhibition of HUVEC 6-ketoPGF1a / prostacyclin production [4] | further results
CCCCCCC=CC=CCCCCCCCC(=O)O [9E, 11E-CLA, 9,11-octadecadienoic acid] |  |  |  |  |  | inhibition at 25 µM (Human platelets [1]; Homo sapiens, Platelet, 25 μM, 1 hour pretreatment, versus HSA control, Example 2, read-out: inhibition of TXB2 formation (FIG. 1)): 37%
CCCCCCC=CC=CCCCCCCCC(=O)O [9Z, 11Z-CLA, 9,11-octadecadienoic acid] | 4 fold | 8 | 1.9-23 fold | 2.3 fold and 2.3 ± 1.0 (4) fold | but not 9Z, 11Z-CLA isomer, was an effective inhibitor | fold increase in TXB2 formation (Human platelets [1]; 25 μM prelabeling, relative to HSA/platelet controls): 2-4 fold and 2 fold; TXB2 Control (%) (Human platelets [1]; 25 μM, 1 hour at 37° C., single experiments No. 1-3, relative to HSA alone, listed as HSA + ZZ): 146% and 192% and 203%; activity at 25 µM (Human platelets [1]; Homo sapiens, Platelet, 25 μM, 1 hour, mean ± S.D. of three experiments, read-out: TXB2 formation, % of control, summary of experiments #1-3): 180 ± 30%; TXB2 formation (Human platelets [1]; [6]): 0.36 ng/mL; HUVEC 6-ketoPGF1a formation fold-stimulation (IL-1β-treated HUVECs; listed as 9Z, 11Z): 8.1 ± 10 fold; activity at 25 µM (Human platelets [3]; Homo sapiens, Platelet, 1 hour, mean ± S.D. of three experiments, read-out: AA release, % of control, summary of experiments #1-3): 414 ± 155%; AA release (Human platelets [3]; [6]): 27 µg/mL
CCCCCC=CC=CCCCCCCCCC(=O)O [10E, 12Z-CLA, 10,12-octadecadienoic acid] |  | 3 | 1.5-7.5 fold | 1.3 ± 0.41 (4) fold | effective inhibitor | HUVEC 6-ketoPGF1a formation fold-stimulation (IL-1β-treated HUVECs; listed as 10E, 12Z): 3.5 ± 2.7 fold; HUVEC 6-ketoPGF1a formation fold-stimulation (IL-1β-treated HUVECs; listed as 10E, 12Z isomer): not quite half as effective; increase in formation and release of TXB2 (Human platelets [2]): 30%
CCCCC/C=C\C/C=C\CCCCCCCC(=O)O [LA, linoleic acid] | did not show an appreciable effect |  |  |  |  | 
CCCCCCCCCCCCCCCCCC(=O)O [SA, stearic acid, reference compound] | did not show an appreciable effect |  |  |  |  | 
